US9586951B2 (FUJIFILM Corporation, priority 2013, dated 2017)
pIC50: −log10 of the molar value. Like-named read-outs stand apart in the source and are kept apart here.

Target: T1, ATM (Homo sapiens, UniProt Q13315)
T1 construct: detecting phosphorylation of Chk2 in a human non-small cell lung cancer cell line NCI-H460 (ATCC company); host or cells: NCI-H460 human non-small cell lung cancer cells
Experiment: ATM inhibition test (phosphorylation of Chk2 generated by ionizing radiation, AlphaScreen SureFire)
Format: cell-based
Conditions: phosphorylated Chk2 in NCI-H460 cells, ionizing radiation 8Gy, 1 hour after test compound treatment
Procedure, shortened: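 Human NCI-H460 lung cancer cells were treated with compound for 1 h, then irradiated at 8Gy and incubated 1 h at 37° C. Phospho-Chk2 was quantified by AlphaScreen SureFire; inhibition % was normalised between irradiated untreated and non-irradiated untreated wells.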

[1] = read-out: ATM inhibitory activity

T1 sequence (Q13315 whole entry): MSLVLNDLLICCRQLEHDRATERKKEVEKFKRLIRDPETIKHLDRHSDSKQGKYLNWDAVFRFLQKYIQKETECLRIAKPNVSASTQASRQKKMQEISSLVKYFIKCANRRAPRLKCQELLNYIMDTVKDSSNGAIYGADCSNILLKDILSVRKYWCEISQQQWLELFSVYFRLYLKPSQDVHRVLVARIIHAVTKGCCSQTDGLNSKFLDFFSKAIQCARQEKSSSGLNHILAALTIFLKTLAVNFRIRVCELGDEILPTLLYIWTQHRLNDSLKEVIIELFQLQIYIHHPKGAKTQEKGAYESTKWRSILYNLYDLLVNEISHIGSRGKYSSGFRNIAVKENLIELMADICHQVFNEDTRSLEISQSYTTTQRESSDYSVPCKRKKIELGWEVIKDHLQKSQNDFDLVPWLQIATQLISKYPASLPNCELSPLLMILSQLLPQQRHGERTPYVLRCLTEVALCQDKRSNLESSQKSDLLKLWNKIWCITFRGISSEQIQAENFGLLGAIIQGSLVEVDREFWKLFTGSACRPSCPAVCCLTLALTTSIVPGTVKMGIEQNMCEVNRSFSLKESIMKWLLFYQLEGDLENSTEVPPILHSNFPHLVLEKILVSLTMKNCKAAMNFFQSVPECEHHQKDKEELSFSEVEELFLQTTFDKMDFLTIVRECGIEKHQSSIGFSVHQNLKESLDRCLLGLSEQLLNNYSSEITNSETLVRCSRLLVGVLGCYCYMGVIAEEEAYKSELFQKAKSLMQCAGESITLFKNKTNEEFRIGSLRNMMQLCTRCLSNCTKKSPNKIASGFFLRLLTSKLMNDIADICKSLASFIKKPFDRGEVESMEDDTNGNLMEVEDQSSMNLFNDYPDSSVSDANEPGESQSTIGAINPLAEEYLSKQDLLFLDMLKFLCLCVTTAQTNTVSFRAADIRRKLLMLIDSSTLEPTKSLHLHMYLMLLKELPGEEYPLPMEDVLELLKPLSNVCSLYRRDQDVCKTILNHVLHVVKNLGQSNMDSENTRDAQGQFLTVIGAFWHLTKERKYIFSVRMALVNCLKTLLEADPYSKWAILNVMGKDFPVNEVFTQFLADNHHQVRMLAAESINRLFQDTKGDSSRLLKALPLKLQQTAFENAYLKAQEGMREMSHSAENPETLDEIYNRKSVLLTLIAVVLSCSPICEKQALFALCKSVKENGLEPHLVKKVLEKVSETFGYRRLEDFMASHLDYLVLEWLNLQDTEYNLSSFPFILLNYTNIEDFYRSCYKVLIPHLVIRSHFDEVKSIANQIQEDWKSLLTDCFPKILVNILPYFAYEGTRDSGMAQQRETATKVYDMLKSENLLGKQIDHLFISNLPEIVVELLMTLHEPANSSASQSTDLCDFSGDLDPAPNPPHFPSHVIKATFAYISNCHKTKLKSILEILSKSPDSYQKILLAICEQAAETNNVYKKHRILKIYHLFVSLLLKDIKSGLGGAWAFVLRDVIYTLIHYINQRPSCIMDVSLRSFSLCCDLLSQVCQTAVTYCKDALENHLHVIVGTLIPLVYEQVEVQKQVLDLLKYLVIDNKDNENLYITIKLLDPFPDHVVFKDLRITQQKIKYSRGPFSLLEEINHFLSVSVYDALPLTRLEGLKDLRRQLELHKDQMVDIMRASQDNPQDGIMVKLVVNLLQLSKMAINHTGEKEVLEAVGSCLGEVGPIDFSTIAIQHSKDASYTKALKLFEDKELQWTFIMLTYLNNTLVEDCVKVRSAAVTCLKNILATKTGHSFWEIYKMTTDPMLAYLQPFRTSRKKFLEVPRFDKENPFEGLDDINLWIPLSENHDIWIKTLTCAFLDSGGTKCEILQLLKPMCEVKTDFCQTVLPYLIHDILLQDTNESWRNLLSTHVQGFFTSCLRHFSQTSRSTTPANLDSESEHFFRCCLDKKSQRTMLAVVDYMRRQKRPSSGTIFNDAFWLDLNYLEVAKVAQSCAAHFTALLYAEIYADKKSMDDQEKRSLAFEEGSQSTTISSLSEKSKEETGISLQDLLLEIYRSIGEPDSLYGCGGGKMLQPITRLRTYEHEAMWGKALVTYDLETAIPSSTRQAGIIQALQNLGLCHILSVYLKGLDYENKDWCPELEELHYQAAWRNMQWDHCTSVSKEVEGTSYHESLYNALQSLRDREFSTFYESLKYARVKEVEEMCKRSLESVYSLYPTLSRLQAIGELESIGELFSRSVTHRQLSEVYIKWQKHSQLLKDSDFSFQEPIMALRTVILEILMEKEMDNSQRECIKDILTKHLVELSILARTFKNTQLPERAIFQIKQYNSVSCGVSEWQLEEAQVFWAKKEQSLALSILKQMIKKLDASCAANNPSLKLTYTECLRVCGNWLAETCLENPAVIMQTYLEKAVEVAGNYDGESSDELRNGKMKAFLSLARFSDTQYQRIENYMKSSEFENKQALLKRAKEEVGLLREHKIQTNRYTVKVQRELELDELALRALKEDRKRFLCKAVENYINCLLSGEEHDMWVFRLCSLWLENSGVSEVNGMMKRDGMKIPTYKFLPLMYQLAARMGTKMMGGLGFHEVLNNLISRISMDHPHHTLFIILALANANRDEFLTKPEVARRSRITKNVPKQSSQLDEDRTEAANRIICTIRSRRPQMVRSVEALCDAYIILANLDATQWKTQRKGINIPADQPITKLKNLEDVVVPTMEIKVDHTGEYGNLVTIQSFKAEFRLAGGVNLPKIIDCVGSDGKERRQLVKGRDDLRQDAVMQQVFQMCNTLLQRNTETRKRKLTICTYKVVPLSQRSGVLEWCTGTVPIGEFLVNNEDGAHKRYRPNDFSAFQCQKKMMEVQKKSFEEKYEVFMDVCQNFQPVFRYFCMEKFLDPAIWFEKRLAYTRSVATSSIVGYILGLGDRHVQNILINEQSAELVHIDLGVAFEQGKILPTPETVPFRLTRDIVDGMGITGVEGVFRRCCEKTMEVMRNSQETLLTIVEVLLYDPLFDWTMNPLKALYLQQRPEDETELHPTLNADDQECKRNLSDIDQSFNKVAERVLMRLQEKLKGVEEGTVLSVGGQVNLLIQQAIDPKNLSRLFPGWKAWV

Row | SMILES | pIC50 [1] | pIC50 (ATM inhibitory activity)
1 | O=c1cc(N2CCOCC2)cc(-c2cccc3c2Oc2ccc(NC4CCCNC4)cc2S3)[nH]1 (centres unmarked) [Example 4-5, 4-morpholino-6-(8-(piperidin-3-ylamino)phenoxathiin-4-yl)pyridin-2(1H)-one] | 5.70 to 6.30 | –
2 | O=c1cc(N2CCOCC2)cc(-c2cccc3c2Sc2ccc(NC4CCCC4N4CCOCC4)cc2S3)[nH]1 (single isomer, unassigned) [Example 1-16-1-3, 4-morpholino-6-(7-((2-morpholinocyclopentyl)amino)thianthren-1-yl)pyridin-2(1H)-one] | 6.30 to 7.00 | –
3 | Nc1cccc2c1Sc1cccc(-c3cc(N4CCOCC4)cc(=O)[nH]3)c1O2 [Example 4-3, 6-(9-Aminophenoxathiin-4-yl)-4-morpholinopyridin-2(1H)-one] | 6.30 to 7.00 | –
4 | O=c1cc(N2CCOCC2)cc(-c2cccc3c2Oc2ccc(NC4CCN(CCc5ccc(F)cc5)CC4)cc2C3)[nH]1 [Example 2-30-14, 6-(7-((1-(4-Fluorophenethyl)piperidin-4-yl)amino)-9H-xanthen-4-yl)-4-morpholino pyridin-2(1H)-one] | 6.30 to 7.00 | –
5 | CCCCN1CCC(Nc2ccc3c(c2)Cc2cccc(-c4cc(N5CCOCC5)cc(=O)[nH]4)c2O3)CC1C (centres unmarked) [Example 2-19-2, 6-(7-((1-Butyl-2-methylpiperidin-4-yl)amino)-9H-xanthen-4-yl)-4-morpholinopyridin-2(1H)-one] | 5.70 to 6.30 | –
6 | Cc1ccc(C(CCN2CCN(C)CC2)Nc2ccc3c(c2)Sc2cccc(-c4cc(N5CCOCC5)cc(=O)[nH]4)c2S3)nc1 (single isomer, unassigned) [Example 10-3-1, 6-(7-((3-(4-Methylpiperazin-1-yl)-1-(5-methylpyridin-2-yl)propyl)amino)thianthren-1-yl)-4-morpholino pyridin-2 (1H)-one] | > 7.00 | –
7 | COc1cc(CNc2ccc3c(c2)Cc2ccnc(-c4cc(N5CCOCC5)cc(=O)[nH]4)c2O3)cnc1OC [Example 2-41-10, 6-(7-(((5,6-Dimethoxypyridin-3-yl)methyl)amino)-5H-chromeno[2,3-c]pyridin-1-yl)-4-morpholino pyridin-2(1H)-one] | 6.30 to 7.00 | –
8 | O=c1cc(N2CCOCC2)cc(-c2cccc3c2Sc2ccc(NCc4ccsc4)cc2S3)[nH]1 [Example 1-12-1, 4-morpholino-6-(7-((thiophen-3-ylmethyl)amino)thianthren-1-yl)pyridin-2(1H)-one] | 6.30 to 7.00 | –
9 | CN1CCCC(Nc2ccc3c(c2)Cc2cccc(-c4cc(N5CCOCC5)cc(=O)[nH]4)c2O3)C1 (centres unmarked) [Example 2-7-1, 6-(7-((1-methylpiperidin-3-yl)amino)-9H-xanthen-4-yl)-4-morpholinopyridin-2(1H)-one] | 5.70 to 6.30 | –
10 | Cc1ccc(C(Nc2ccc3c(c2)Sc2cccc(-c4cc(N5CCOCC5)cc(=O)[nH]4)c2S3)[C@@H]2CCN(C)C2)nc1 (single isomer, unassigned) [Example 1-56-16] | > 7.00 | –
11 | CC(C)(C)OC(=O)n1cc(-c2cncc(CNc3ccc4c(c3)Sc3cccc(-c5cc(N6CCOCC6)cc(=O)[nH]5)c3S4)c2)cn1 [Example 1-44-6, tert-Butyl 4-(5-(((6-(4-morpholino-6-oxo-1,6-dihydropyridin-2-yl)thianthren-2-yl)amino)methyl)pyridin-3-yl)-1H-pyrazole-1-carboxylate] | > 7.00 | –
12 | O=c1cc(N2CCOCC2)cc(-c2cccc3c2Sc2ccc(NCCCN4CCOCC4)cc2S3)[nH]1 [Example 1-9-3, 4-Morpholino-6-(7-((3-morpholinopropyl)amino)thianthren-1-yl)pyridin-2(1H)-one] | > 7.00 | –
13 | Cc1cc(C)nc(CNc2ccc3c(c2)Cc2cccc(-c4cc(N5CCOCC5)cc(=O)[nH]4)c2O3)c1 [Example 2-14-15, 6-(7-(((4,6-Dimethylpyridin-2-yl)methyl)amino)-9H-xanthen-4-yl)-4-morpholino pyridin-2 (1H)-one] | 6.30 to 7.00 | –
14 | Cc1cncc(CNc2ccc3c(c2)Sc2cccc(-c4cc(N5CCOCC5)cc(=O)[nH]4)c2S3)n1 [Example 1-12-60, 6-(7-(((6-Methylpyrazin-2-yl)methyl)amino)thianthren-1-yl)-4-morpholino pyridin-2(1H)-one] | 6.30 to 7.00 | –
15 | O=c1cc(N2CCOCC2)cc(-c2cccc3c2Oc2ccc(NC4CCOC4)cc2C3)[nH]1 (centres unmarked) [Example 2-16, 4-Morpholino-6-(7-((tetrahydrofuran-3-yl)amino)-9H-xanthen-4-yl)pyridin-2(1H)-one] | 5.70 to 6.30 | –
16 | COc1cnccc1CNc1ccc2c(c1)Sc1cccc(-c3cc(N4CCOCC4)cc(=O)[nH]3)c1O2 [Example 4-4-23, 6-(8-(((3-Methoxypyridin-4-yl)methyl)amino)phenoxathiin-4-yl)-4-morpholino pyridin-2(1H)-one] | 6.30 to 7.00 | –
17 | Cc1cncc(CNc2ccc3c(c2)Cc2cccc(-c4cc(N5CCOCC5)cc(=O)[nH]4)c2O3)c1 [Example 2-2-9, 6-(7-(((5-Methylpyridin-3-yl)methyl)amino)-9H-xanthen-4-yl)-4-morpholino pyridin-2(1H)-one] | 6.30 to 7.00 | –
18 | O=C(CNc1ccc2c(c1)Sc1cccc(-c3cc(N4CCOCC4)cc(=O)[nH]3)c1S2)N1CCCC1 [Example 1-18-1, 4-morpholino-6-(7-((2-oxo-2-(pyrrolidin-1-yl)ethyl)amino)thianthren-1-yl)pyridin-2(1H)-one] | 6.30 to 7.00 | –

Row | SMILES | pIC50 [1] | pIC50 (ATM inhibitory activity)
19 | Cc1cccc(C(CO)Nc2ccc3c(c2)Cc2cccc(-c4cc(N5CCOCC5)cc(=O)[nH]4)c2O3)n1 (racemic) [Example 2-14-38, 6-(7-((2-Hydroxy-1-(6-methylpyridin-2-yl)ethyl)amino)-9H-xanthen-4-yl)-4-morpholino pyridin-2 (1H)-one] | 6.30 to 7.00 | –
20 | Cc1csc(CNc2ccc3c(c2)Cc2cccc(-c4cc(N5CCOCC5)cc(=O)[nH]4)c2O3)n1 [Example 2-14-42, 6-(7-(((4-Methylthiazol-2-yl)methyl)amino)-9H-xanthen-4-yl)-4-morpholino pyridin-2(1H)-one] | 6.30 to 7.00 | –
21 | Cc1ccnc(C(CO)Nc2ccc3c(c2)Cc2cccc(-c4cc(N5CCOCC5)cc(=O)[nH]4)c2O3)c1 (racemic) [Example 2-14-39, 6-(7-((2-Hydroxy-1-(4-methylpyridin-2-yl)ethyl)amino)-9H-xanthen-4-yl)-4-morpholino pyridin-2 (1H)-one] | 6.30 to 7.00 | –
22 | CC(Nc1ccc2c(c1)Cc1cccc(-c3cc(N4CCOCC4)cc(=O)[nH]3)c1O2)c1cncc(Cl)c1 (centres unmarked) [Example 2-14-27, 6-(7-((1-(5-Chloropyridin-3-yl)ethyl)amino)-9H-xanthen-4-yl)-4-morpholino pyridin-2(1H)-one] | 6.30 to 7.00 | –
23 | O=c1cc(N2CCOCC2)cc(-c2cccc3c2Sc2ccc(N4CC4CF)cc2S3)[nH]1 (centres unmarked) [Example 1-40, 6-(7-(2-(fluoromethyl)aziridin-1-yl)thianthren-1-yl)-4-morpholinopyridin-2(1H)-one] | – | 6.30 to 7.00
24 | CN(C)C(=O)Nc1ncc(CNc2ccc3c(c2)Sc2cccc(-c4cc(N5CCOCC5)cc(=O)[nH]4)c2S3)cn1 [Example 1-12-47] | 6.30 to 7.00 | –
25 | COCCN(C)CCNc1ccc2c(c1)Sc1cccc(-c3cc(N4CCOCC4)cc(=O)[nH]3)c1S2 [Example 1-10-12, 6-(7-((2-((2-Methoxyethyl) (methyl)amino)ethyl)amino)thianthren-1-y1)-4-morpholino pyridin-2(1H)-one] | 6.30 to 7.00 | –
26 | O=c1cc(N2CCOCC2)cc(-c2cccc3c2Oc2ccc(NCc4cccc(C(F)(F)F)c4)cc2C3)[nH]1 [Example 2-3-14, 4-Morpholino-6-(7-((3-(trifluoromethyl)benzyl)amino)-9H-xanthen-4-yl) pyridin-2(1H)-one] | 6.30 to 7.00 | –
27 | CN(C)C1CCC(Nc2ccc3c(c2)Sc2cccc(-c4cc(N5CCOCC5)cc(=O)[nH]4)c2S3)CC1 (centres unmarked) [Example 1-36-2, 6-(7-((4-(Dimethylamino)cyclohexyl)amino)thianthren-1-yl)-4-morpholinopyridin-2(1H)-one] | 6.30 to 7.00 | –
28 | O=c1cc(N2CCOCC2)cc(-c2ccc(F)c3c2Oc2ccc(NCc4cncc(Cl)c4)cc2C3)[nH]1 [Example 2-44-3, 6-(7-(((5-Chloropyridin-3-yl)methyl)amino)-1-fluoro-9H-xanthen-4-yl)-4-morpholinopyridin-2(1H)-one] | 6.30 to 7.00 | –
29 | O=c1cc(N2CCOCC2)cc(-c2cccc3c2Oc2ccc(NC4CCCN(CCc5ccccc5)C4)cc2S3)[nH]1 (centres unmarked) [Example 4-6-3] | 6.30 to 7.00 | –
30 | CCCCC(Nc1ccc2c(c1)Sc1cccc(-c3cc(N4CCOCC4)cc(=O)[nH]3)c1S2)[C@H](C)N1CCOCC1 (stereo partly drawn) [Example 1-21-2, 4-Morpholino-6-(7-(((2S)-2-morpholinoheptan-3-yl)amino)thianthren-1-yl) pyridin-2(1H)-one] | 6.30 to 7.00 | –
31 | COc1ccncc1CN1CCC(Nc2ccc3c(c2)Sc2cccc(-c4cc(N5CCOCC5)cc(=O)[nH]4)c2S3)CC1 [Example 1-45, 6-(7-((1-((4-Methoxypyridin-3-yl)methyl)piperidin-4-yl)amino)thianthren-1-yl)-4-morpholinopyridin-2(1H)-one] | 6.30 to 7.00 | –
32 | CC(C)Nc1cncc(CNc2ccc3c(c2)Sc2cccc(-c4cc(N5CCOCC5)cc(=O)[nH]4)c2O3)c1 [Example 4-8-26] | 6.30 to 7.00 | –
33 | O=c1cc(N2CCOCC2)cc(-c2cccc3c2Oc2ccc(NCCN4CCOCC4)cc2S3)[nH]1 [Example 4-11, 4-Morpholino-6-(8-((2-morpholinoethyl)amino)phenoxathiin-4-yl)pyridin-2(1H)-one] | 6.30 to 7.00 | –
34 | O=c1cc(N2CCOCC2)cc(-c2cccc3c2Oc2ccc(NCc4cccnc4)cc2C3)[nH]1 [Example 2-3-1, 4-Morpholino-6-(7-((pyridin-3-ylmethyl)amino)-9H-xanthen-4-yl)pyridin-2(1H)-one] | 6.30 to 7.00 | –
35 | CNc1ncc(CN2CCC(Nc3ccc4c(c3)Cc3cccc(-c5cc(N6CCOCC6)cc(=O)[nH]5)c3O4)CC2)cn1 [Example 2-28-12, 6-(7-((1-((2-(Methylamino)pyrimidin-5-yl)methyl)piperidin-4-yl)amino)-9H-xanthen-4-yl)-4-morpholino pyridin-2 (1H)-one] | 5.70 to 6.30 | –
